Results reported in EP0085843A1, “Antimycosic agent” (BAYER AG, priority 1982, dated 1983).

How the values were obtained:
Candida = test: Antifungal in-vivo activity (oral) in mouse candidosis; design: species or system Mäuse vom Typ SPF-CF1; key to Wirkung (Ueberlebende am 6.Tag p.i.): +++++: = sehr gute Wirkung = 90 % Ueberlebende am 6.Tag p.i.; ++++: = gute Wirkung = 80 % Ueberlebende am 6.Tag p.i.; +++: = Wirkung = 60 % Ueberlebende am 6.Tag p.i.; ++: = schwache Wirkung = 40 % Ueberlebende am 6.Tag p.i.; +: = Spur Wirkung = unter 40% " " " "; k.W.: = keine Wirkung; conditions: for Wirkung (Ueberlebende am 6.Tag p.i.): 50 - 100 mg/kg one hour before and seven hours after i.v. infection; for Wirkung compared with known compounds (A), (B), (C), (D): mouse candidosis
Description: Mäuse vom Typ SPF-CF1 wurden intravenös mit 1 - 2 x 10^6 logarithmisch wachsenden Candida-Zellen, die in physiologischer Kochsalzlösung suspendiert werden, infiziert. Eine Stunde vor und sieben Stunden nach der Infektion werden die Tiere mit jeweils 50 - 100 mg/kg Körpergewicht der Präparate oral behandelt.
Unbehandelte Tiere starben 3 bis 6 Tage post infektionem. Die Ueberlebensrate am 6.Tag post infektionem betrug bei unbehandelten Kontrolltieren etwa 5 %.

[1] = test system: Dermatophyten, Schimmelpilze, Hefen; test: Antifungal in-vitro activity, serial dilution test, overall statement; type: cell-based
Description: Versuchsbeschreibung: • Die in-vitro-Prüfungen wurden im Reihenverdünnungstest mit Keiminokula von durchschnittlich 5 x 10^4 Keimen/ml Substrat durchgeführt. Als Nährmedium dienten • a) für Dermatophyten und Schimmelpilze: Sabouraud's milieu d'epreuve • b) für Hefen: • Fleischextrakt-Traubenzucker-Bouillon.
Die Bebrütungstemperatur betrug 20°C, die Bebrütungsdauer lag bei 24 bis 96 Stunden bei Hefen und 96 Stunden bei Dermatophyten und Schimmelpilzen.

[2] = test system: Trichophyton mentagrophytes; test: In-vivo activity (local) in experimental guinea pig trichophytosis; design: species or system Meerschweinchen; key to Wirkung (Infektionszeichen): +++++: sehr gute Wirkung = keine Infektionszeichen am 12.-15.Tag p.i.; ++++: gute Wirkung = geringe Rötung, vereinzelt Schuppen; +++: Wirkung = Rötung, Schuppung, ohne Haarausfall; ++: schwache Wirkung = Rötung, Schuppung, Haarausfall; +: Spur Wirkung = flächiger Haarausfall, entzündliche Hautreaktion; conditions: for Wirkung (Infektionszeichen): 1x daily from day 3 p.i., 15%-ige Lösung in Dimethylsulfoxid : Glycerin = 1 : 4; for Wirkung: trichophytosis model

In the case of Cc1cc(Cl)ccc1OCC(O)(Cn1cncn1)C(C)(C)C (centres unmarked) [(C), reference compound], the “Wirkung (Ueberlebende am 6.Tag p.i.)” value (Candida) is reported as “k.W”.
With COC(COc1ccc(Cl)cc1Cl)(Cn1cncn1)C(C)(C)C (centres unmarked) [Beispiel 3] the “Wirkung (Ueberlebende am 6.Tag p.i.)” value (Candida) was “+++ (= Wirkung = 60 % Ueberlebende am 6.Tag p.i.)”, the “Wirkung compared with known compounds (A), (B), (C), (D)” value (Candida) was “bessere Wirkung” and the “antimykotische Wirkung compared with known compounds (A), (B), (C), (D)” value [1] was “bessere antimykotische Wirkung”. For the same compound, the “Wirkung (Infektionszeichen)” value [2] was “++++” and the Wirkung [2] was “gute Wirkung”.
In the case of COC(COc1ccc(Cl)cc1C)(Cn1cncn1)C(C)(C)C (centres unmarked) [Beispiel 1, 2-(4-Chlor-2-methyl-phenoxymethyl)-3,3-dimethyl-2-methoxy-1-(1,2,4-triazol-1-yl)-butan], the “Wirkung (Ueberlebende am 6.Tag p.i.)” value (Candida) is reported as “+++ (= Wirkung = 60 % Ueberlebende am 6.Tag p.i.)”, the “Wirkung compared with known compounds (A), (B), (C), (D)” value (Candida) is reported as “bessere Wirkung” and the “antimykotische Wirkung compared with known compounds (A), (B), (C), (D)” value [1] is reported as “bessere antimykotische Wirkung”. The “Wirkung (Infektionszeichen)” value [2] was “++++” and the Wirkung [2] was “gute Wirkung”.
COC(CCc1ccc(F)cc1)(Cn1cncn1)C(C)(C)C (centres unmarked) [Beispiel 5] was tested, and the “Wirkung (Ueberlebende am 6.Tag p.i.)” value (Candida) was “++++ (= gute Wirkung = 80 % Ueberlebende am 6.Tag p.i.)”, the “Wirkung compared with known compounds (A), (B), (C), (D)” value (Candida) was “bessere Wirkung” and the “antimykotische Wirkung compared with known compounds (A), (B), (C), (D)” value [1] was “bessere antimykotische Wirkung”. For the same compound, the “Wirkung (Infektionszeichen)” value [2] was “++++” and the Wirkung [2] was “gute Wirkung”.
For Cc1ccc(OCC(O)(Cn2cncn2)C(C)(C)C)cc1 (centres unmarked) [(A), reference compound], the “Wirkung (Ueberlebende am 6.Tag p.i.)” value (Candida) was “k.W”.
In the case of COC(COc1ccc(Cl)cc1)(Cn1cncn1)C(C)(C)C (centres unmarked) [Beispiel 2], the “Wirkung (Ueberlebende am 6.Tag p.i.)” value (Candida) is reported as “++++ (= gute Wirkung = 80 % Ueberlebende am 6.Tag p.i.)”, the “Wirkung compared with known compounds (A), (B), (C), (D)” value (Candida) is reported as “bessere Wirkung” and the “Wirkung (Infektionszeichen)” value [2] is reported as “++++”. For the same compound, the Wirkung [2] was “gute Wirkung”.
For COC(CCc1ccc(Cl)cc1)(Cn1cncn1)C(C)(C)C (centres unmarked) [Beispiel 4], the “Wirkung (Ueberlebende am 6.Tag p.i.)” value (Candida) was “+++++ (= sehr gute Wirkung = 90 % Ueberlebende am 6.Tag p.i.)”, the “Wirkung compared with known compounds (A), (B), (C), (D)” value (Candida) was “bessere Wirkung” and the “antimykotische Wirkung compared with known compounds (A), (B), (C), (D)” value [1] was “bessere antimykotische Wirkung”. For the same compound, the “Wirkung (Infektionszeichen)” value [2] was “++++” and the Wirkung [2] was “gute Wirkung”.
